Assays:
Etysiphe graminis = experiment: Action against Etysiphe graminis/barley (powdery mildew on barley); type: in vivo; settings: barley plants cv. Express, spray 0.02% active ingredient, inoculated one day after application, assessed after 6 days incubation
Experimental: Action Against Etysiphe graminis/barley (Powdery Mildew on Barley)
1 week old barley plants cv. […] One day after application barley plants are inoculated by shaking powdery mildew infected plants above the test plants. After an incubation period of 6 days at 20° C./18° C. (day/night) and 60% r. h. in a greenhouse the disease incidence is assessed.

Botryis cinerea = experiment: Action against Botryis cinerea/apple (Botrytis on apple fruits); type: in vivo, B. cinerea; settings: apple fruit cv. Golden Delicious, 30 μl droplets 0.002% active ingredient in drilled holes, inoculated two hours after application, assessed after 7 days
Experimental: Action Against Botryis cinerea/apple (Botrytis on Apple Fruits)
In an apple fruit cv. […] Two hours after application 50 μl of a spore suspension of B. cinerea (4×10^5 conidia/ml) are pipetted on the application sites. After an incubation period of 7 days at 22° C. in a growth chamber the disease incidence is assessed.

Botryts cinerea = experiment: Action against Botryts cinerea/tomato (Botrytis on tomatoes); type: in vivo; settings: tomato plants cv. Roter Gnom, spray 0.002% active ingredient, inoculated two days after application, assessed after 4 days incubation
Experimental: Action Against Botryts cinerea/tomato (Botrytis on Tomatoes)
4 week old tomato plants cv. […] Two days after application tomato plants are inoculated by spraying a spore suspension (1×10^5 conidia/ml) on the test plants. After an incubation period of 4 days at 20° C. and 95% r. h. in a growth chamber the disease incidence is assessed.

Venturia Inaequalis = experiment: Action against Venturia inaequalis/apple (scab on apple); type: in vivo; settings: apple seedlings cv. McIntosh, spray 0.02% active ingredient, inoculated one day after application, assessed after 4+4+4 days incubation
Experimental: Action Against Venturia Inaequalis/apple (Scab on Apple)
4 week old apple seedlings cv. […] One day after application apple plants are inoculated by spraying a spore suspension (4×10^5 conidia/ml) on the test plants. After an incubation period of 4 days at 21° C. and 95% r. h. the plants are placed for 4 days at 21° C. and 60% r. h. in a greenhouse. After another 4 day incubation period at 21° C. and 95% r. h. the disease incidence is assessed.

Podosphaera leucotricha = experiment: Action against Podosphaera leucotricha/apple (powdery mildew on apple); type: in vivo; settings: apple seedlings cv. McIntosh, spray 0.002% active ingredient, inoculated one day after application, assessed after 12 days incubation
Experimental: Action Against Podosphaera leucotricha/apple (Powdery Mildew on Apple)
5 week old apple seedlings cv. […] One day after application apple plants are inoculated by shaking plants infected with apple powdery mildew above the test plants. After an incubation period of 12 days at 22° C. and 60% r. h. under a light regime of 14/10 h (light/dark) the disease incidence is assessed.

Puenophora teres = experiment: Action against Puenophora teres/barley (net blotch on barley); type: in vivo; settings: barley plants cv. Express, spray 0.002% active ingredient, inoculated two days after application, assessed 4 days after inoculation
Experimental: Action Against Puenophora teres/barley (Net Blotch on Barley)
1 week old barley plants cv. […] Two days after application barley plants are inoculated by spraying a spore suspension (3×10^4 conidia/ml) on the test plants. After an incubation period of 2 days at 20° C. and 95% r. h. plants are kept for 2 days at 20° C. and 60% r.h. in a greenhouse. The disease incidence is assessed 4 days after inoculation.

Septoria nodorum = experiment: Action against Septoria nodorum/wheat (Septoria leaf spot on wheat); type: in vivo; settings: wheat plants cv. Arina, spray 0.02% active ingredient, inoculated one day after application, assessed 11 days after inoculation
Experimental: Action Against Septoria nodorum/wheat (Septoria Leaf Spot on Wheat)
1 week old wheat plants cv. […] One day after application wheat plants are inoculated by spraying a spore suspension (5×10^5 conidia/ml) on the test plants. After an incubation period of 1 day at 20° C. and 95% r. h. plants are kept for 10 days at 20° C. and 60% r.h. in a greenhouse. The disease incidence is assessed 11 days after inoculation.

Boftis cinerea = experiment: Action against Boftis cinerea/grape (Botrytis on grapes); type: in vivo; settings: grape seedlings cv. Gutedel, spray 0.002% active ingredient, inoculated two days after application, assessed after 4 days incubation
Experimental: Action Against Boftis cinerea/grape (Botrytis on Grapes)
5 week old grape seedlings cv. […] Two days after application grape plants are inoculated by spraying a spore suspension (1×10^6 conidia/ml) on the test plants. After an incubation period of 4 days at 21° C. and 95% r. h. in a greenhouse the disease incidence is assessed.

| melting point | Structure (SMILES) | efficacy (disease incidence) (Etysiphe graminis) | efficacy (disease incidence) (Botryis cinerea) | efficacy (disease incidence) (Botryts cinerea) | efficacy (disease incidence) (Venturia Inaequalis) | efficacy (disease incidence) (Podosphaera leucotricha) | efficacy (disease incidence) (Puenophora teres) | efficacy (disease incidence) (Septoria nodorum) | efficacy (disease incidence) (Boftis cinerea) |
| --- | --- | --- | --- | --- | --- | --- | --- | --- | --- |
|  | Cn1cc(C(=O)Nc2ccccc2-c2ccc(F)cc2)c(C(F)(F)C(F)(F)F)c1 [Compound 1.192] | strong efficacy | strong efficacy | strong efficacy | strong efficacy | strong efficacy | strong efficacy | strong efficacy | strong efficacy |
|  | CCc1cn(CC)cc1C(=O)Nc1ccccc1-c1ccc(Cl)cc1 [Compound 1.265] | strong efficacy | strong efficacy | strong efficacy | strong efficacy | strong efficacy | strong efficacy | strong efficacy | strong efficacy |
|  | CCn1cc(C(=O)Nc2ccccc2-c2ccc(F)cc2)c(C(C)C)c1 [Compound 1.272] | strong efficacy | strong efficacy | strong efficacy | strong efficacy | strong efficacy | strong efficacy | strong efficacy | strong efficacy |
|  | Cc1cn(C)cc1C(=O)Nc1ccsc1-c1ccc(Cl)cc1 [Compound 2.23] | strong efficacy | strong efficacy | strong efficacy | strong efficacy | strong efficacy | strong efficacy | strong efficacy | strong efficacy |
|  | Cc1cn(C)cc1C(=O)Nc1cnccc1-c1ccc(F)cc1 [Compound 6.12] | strong efficacy | strong efficacy | strong efficacy | strong efficacy | strong efficacy | strong efficacy | strong efficacy | strong efficacy |
| 148 to 149 °C | Cc1cn(C)cc1C(=O)Nc1ccccc1-c1ccc(F)cc1 [Compound 1.25] | strong efficacy | strong efficacy | strong efficacy | strong efficacy | strong efficacy | strong efficacy | strong efficacy | strong efficacy |
|  | Cn1cc(C(=O)Nc2cnccc2-c2ccc(F)cc2)c(C2CC2)c1 [Compound 6.51] | strong efficacy | strong efficacy | strong efficacy | strong efficacy | strong efficacy | strong efficacy | strong efficacy | strong efficacy |
|  | Cn1cc(C(=O)Nc2ccccc2C2=CCCCC2)c(C(F)(F)C(F)(F)F)c1 [Compound 1.183] | strong efficacy | strong efficacy | strong efficacy | strong efficacy | strong efficacy | strong efficacy | strong efficacy | strong efficacy |
|  | Cc1cn(C)cc1C(=O)Nc1ccccc1C1=CCCCC1 [Compound 1.5] | strong efficacy | strong efficacy | strong efficacy | strong efficacy | strong efficacy | strong efficacy | strong efficacy | strong efficacy |
|  | CCc1cn(CC)cc1C(=O)Nc1ccccc1-c1ccc(F)cc1 [Compound 1.266] | strong efficacy | strong efficacy | strong efficacy | strong efficacy | strong efficacy | strong efficacy | strong efficacy | strong efficacy |
|  | Cn1cc(C(=O)Nc2ccccc2-c2ccncc2F)c(C2CC2)c1 [Compound 1.244] | strong efficacy | strong efficacy | strong efficacy | strong efficacy | strong efficacy | strong efficacy | strong efficacy | strong efficacy |
|  | CCc1cn(C)cc1C(=O)Nc1ccccc1-c1ccc(F)cc1 [Compound 1.261] | strong efficacy | strong efficacy | strong efficacy | strong efficacy | strong efficacy | strong efficacy | strong efficacy | strong efficacy |
|  | Cn1cc(C(=O)Nc2ccccc2-c2ccc(Cl)cc2)c(C(F)(F)C(F)(F)F)c1 [Compound 1.190] | strong efficacy | strong efficacy | strong efficacy | strong efficacy | strong efficacy | strong efficacy | strong efficacy | strong efficacy |
|  | CC(C)c1cn(C)cc1C(=O)Nc1ccccc1-c1ccc(Cl)cc1 [Compound 1.268] | strong efficacy | strong efficacy | strong efficacy | strong efficacy | strong efficacy | strong efficacy | strong efficacy | strong efficacy |

— patent publication US6806286B2, “Pyrrolecarboxamides and pyrrolethioamides as fungicides” (Syngenta Crop Protection, Inc., priority 2000, dated 2004)
